Test results as given in patent publication US10597388B2, “Pyridazinone herbicides” (FMC CORPORATION, priority 2014, dated 2020).

Columns and labels:
Assay in all cases: Test E greenhouse herbicide test, pre- and postemergence
Format in all cases: in vivo
Conditions in all cases: Preemergence
[1] = tested on: surinam grass (Brachiaria decumbens)
Source text: (§1) Seeds of plant species selected from corn (Zea mays), soybean (Glycine max), velvetleaf (Abutilon theophrasti), lambsquarters (Chenopodium album), wild poinsettia (Euphorbia heterophylla), pigweed, palmer (palmer pigweed, Amaranthus palmeri), waterhemp (common waterhemp, Amaranthus rudis), surinam grass (Brachiaria decumbens), crabgrass, large (large crabgrass, Digitaria sanguinalis), crabgrass, Brazilian (Brazilian crabgrass, Digitaria horizontalis), panicum, fall (fall panicum, Panicum dichotomiflorum), foxtail, giant (giant foxtail, Setaria faberii), foxtail, green (green foxtail, Setaria viridis), goosegrass (Eleusine indica), johnsongrass (Sorghum halepense), ragweed (common ragweed, Ambrosia elatior), barnyardgrass (Echinochloa crus-galli), sandbur (southem sandbur, Cenchrus echinatus), arrowleaf sida (Sida rhombifolia), Italian ryegrass (Lolium multiflorum), dayflower (Virginia (VA) dayflower, Commelina virginica), field bindweed (Convolvulus arvensis), momingglory (Ipomoea coccinea), nightshade (eastern black nightshade, Solanum ptycanthum), kochia (Kochia scoparia), nutsedge, yellow (yellow nutsedge, Cyperus esculentus), horseweed (Conyza canadensis), and beggarticks (hairy beggarticks, Bidens pilosa), were planted into a silt loam soil and treated preemergence with test chemicals formulated in a non-phytotoxic solvent mixture which included a surfactant.
(§2) At the same time, plants from these crop and weed species and also waterhemp_RES1, (ALS & Triazine resistant common waterhemp, Amaranthus rudis), and waterhemp_RES2, (ALS & HPPD resistant common waterhemp, Amaranthus rudis) were planted in pots containing Redi-Earth® planting medium (Scotts Company, 14111 Scottslawn Road, Marysville, Ohio 43041) comprising spaghnum peat moss, vermiculite, wetting agent and starter nutrients were treated with postemergence applications of test chemicals formulated in the same manner. Plants ranged in height from 2 to 18 cm for postemergence treatments (1- to 4-leaf stage). Treated plants and controls were maintained in a greenhouse for 14 to 21 d, after which time all species were compared to controls and visually evaluated. Plant response ratings, summarized in Table E, are based on a scale of 0 to 100 where 0 is no effect and 100 is complete control. A dash (-) response means no test result.

kochia (Kochia scoparia) = tested on: kochia (Kochia scoparia)
Source text: as §1, §2

[2] = tested on: crabgrass, Brazilian (Brazilian crabgrass, Digitaria horizontalis)
Source text: as §1, §2

[3] = tested on: nightshade (eastern black nightshade, Solanum ptycanthum)
Source text: as §1, §2

[4] = tested on: foxtail, green (green foxtail, Setaria viridis)
Source text: as §1, §2

[5] = tested on: lambsquarters (Chenopodium album)
Source text: as §1, §2

[6] = tested on: foxtail, giant (giant foxtail, Setaria faberii)
Source text: as §1, §2

[7] = tested on: arrowleaf sida (Sida rhombifolia)
Source text: as §1, §2

[8] = tested on: crabgrass, large (large crabgrass, Digitaria sanguinalis)
Source text: as §1, §2

[9] = tested on: Italian ryegrass (Lolium multiflorum)
Source text: as §1, §2

corn (Zea mays) = tested on: corn (Zea mays)
Source text: as §1, §2

[10] = tested on: sandbur (southem sandbur, Cenchrus echinatus)
Source text: as §1, §2

[11] = tested on: barnyardgrass (Echinochloa crus-galli)
Source text: as §1, §2

[12] = tested on: velvetleaf (Abutilon theophrasti)
Source text: as §1, §2

[13] = tested on: panicum, fall (fall panicum, Panicum dichotomiflorum)
Source text: as §1, §2

[14] = tested on: goosegrass (Eleusine indica)
Source text: as §1, §2

[15] = 62 g ai/ha, scale 0 to 100 (0 no effect, 100 complete control)
[16] = 125 g ai/ha, scale 0 to 100 (0 no effect, 100 complete control)
[17] = 31 g ai/ha, scale 0 to 100, 0 no effect, 100 complete control
[18] = 250 g ai/ha, visual, scale 0 no effect to 100 complete control

## C#CCOC(=O)Oc1c(C)nn(C)c(=O)c1-c1c(C)sc2ccc(C)cc12 [Compound 87]
[1]; [15]
  Plant response rating, Surinam Grass: 15
[1]; [16]
  Plant response rating, Surinam Grass: 80
[1]; [17]
  Plant response rating, Surinam Grass: 10
[1]; [18]
  Plant response rating, Surinam Grass: 75
Kochia (Kochia scoparia); [15]
  Plant response rating, Kochia: 100
Kochia (Kochia scoparia); [16]
  Plant response rating, Kochia: 100
Kochia (Kochia scoparia); [17]
  Plant response rating, Kochia: 65
Kochia (Kochia scoparia); [18]
  Plant response rating, Kochia: 100
[2]; [15]
  Plant response rating, Crabgrass, Brazil: 80
[2]; [16]
  Plant response rating, Crabgrass, Brazil: 90
[2]; [17]
  Plant response rating, Crabgrass, Brazil: 60
[2]; [18]
  Plant response rating, Crabgrass, Brazil: 100
[3]; [15]
  Plant response rating, Nightshade: 90
[3]; [16]
  Plant response rating, Nightshade: 98
[3]; [17]
  Plant response rating, Nightshade: 50
[3]; [18]
  Plant response rating, Nightshade: 98
[4]; [15]
  Plant response rating, Foxtail, Green: 20
[4]; [16]
  Plant response rating, Foxtail, Green: 60
[4]; [17]
  Plant response rating, Foxtail, Green: 20
[4]; [18]
  Plant response rating, Foxtail, Green: 80
[5]; [15]
  Plant response rating, Lambsquarters: 100
[5]; [16]
  Plant response rating, Lambsquarters: 100
[5]; [17]
  Plant response rating, Lambsquarters: 100
[5]; [18]
  Plant response rating, Lambsquarters: 100
[6]; [15]
  Plant response rating, Foxtail, Giant: 65
[6]; [16]
  Plant response rating, Foxtail, Giant: 70
[6]; [17]
  Plant response rating, Foxtail, Giant: 25
[6]; [18]
  Plant response rating, Foxtail, Giant: 95
[7]; [15]
  Plant response rating, Arrowleaf Sida: 60
[7]; [16]
  Plant response rating, Arrowleaf Sida: 70
[7]; [17]
  Plant response rating, Arrowleaf Sida: 0
[7]; [18]
  Plant response rating, Arrowleaf Sida: 80
[8]; [15]
  Plant response rating, Crabgrass, Large: 0
[8]; [16]
  Plant response rating, Crabgrass, Large: 65
[8]; [17]
  Plant response rating, Crabgrass, Large: 0
[8]; [18]
  Plant response rating, Crabgrass, Large: 65
[9]; [15]
  Plant response rating, Ryegrass, Italian: 95
[9]; [16]
  Plant response rating, Ryegrass, Italian: 98
[9]; [17]
  Plant response rating, Ryegrass, Italian: 75
[9]; [18]
  Plant response rating, Ryegrass, Italian: 100
Corn (Zea mays); [15]
  Plant response rating, Corn: 0
Corn (Zea mays); [16]
  Plant response rating, Corn: 20
Corn (Zea mays); [17]
  Plant response rating, Corn: 0
Corn (Zea mays); [18]
  Plant response rating, Corn: 15
[10]; [15]
  Plant response rating, Sandbur: 65
[10]; [16]
  Plant response rating, Sandbur: 75
[10]; [17]
  Plant response rating, Sandbur: 25
[10]; [18]
  Plant response rating, Sandbur: 85
[11]; [15]
  Plant response rating, Barnyardgrass: 0
[11]; [16]
  Plant response rating, Barnyardgrass: 10
[11]; [17]
  Plant response rating, Barnyardgrass: 0
[11]; [18]
  Plant response rating, Barnyardgrass: 35
[12]; [15]
  Plant response rating, Velvetleaf: 60
[12]; [16]
  Plant response rating, Velvetleaf: 90
[12]; [17]
  Plant response rating, Velvetleaf: 0
[12]; [18]
  Plant response rating, Velvetleaf: 95
[13]; [15]
  Plant response rating, Panicum, Fall: 90
[13]; [16]
  Plant response rating, Panicum, Fall: 100
[13]; [17]
  Plant response rating, Panicum, Fall: 95
[13]; [18]
  Plant response rating, Panicum, Fall: 98
[14]; [15]
  Plant response rating, Goosegrass: 0
[14]; [16]
  Plant response rating, Goosegrass: 60
[14]; [17]
  Plant response rating, Goosegrass: 0
[14]; [18]
  Plant response rating, Goosegrass: 75
